Data as given in PubChem BioAssay AID493111 (The Scripps Research Institute Molecular Screening Center, 2011).
Calls of active or inactive are those of the source. The rule behind the calls is not given here.

What was measured:
Assay in all cases: LYPLA1/LYPLA2 inhibition and hydrolase selectivity, late-stage follow-up, selectivity assay for LYPLA1/LYPLA2 dual inhibitor project, biochemical, gel-based ABPP, fluorescence, proteome (AID 493111)
Settings in all cases: fluorophosphonate-rhodamine competition, at 1.5 µM (top of the series)
ABHD11 = system: ABHD11
APEH = system: APEH
ESD = system: ESD
LYPLA1 = system: LYPLA1
LYPLA2 = system: LYPLA2

## O=C(N1CCCCC1)n1ccnn1
ABHD11
  inhibition: 100%
APEH
  inhibition: 0% (inactive)
ESD
  inhibition: 0% (inactive)
LYPLA1
  inhibition: 75% (inactive)
LYPLA2
  inhibition: 0% (inactive)

## COC1CCN(C(=O)n2ncc(C(O)(c3ccccc3)c3ccccc3)n2)CC1
ABHD11
  inhibition: 100%
APEH
  inhibition: 0% (inactive)
ESD
  inhibition: 100% (inactive)
LYPLA1
  inhibition: 100%
LYPLA2
  inhibition: 100%

## O=C(N1CCC(C(O)(c2ccccc2)c2ccccc2)CC1)n1ncc(C(O)(c2ccccc2)c2ccccc2)n1
ABHD11
  inhibition: 100%
APEH
  inhibition: 0% (inactive)
ESD
  inhibition: 0% (inactive)
LYPLA1
  inhibition: 100%
LYPLA2
  inhibition: 100%

## CC(C)(C)C1CCN(C(=O)n2ncc(C3(O)CCCCC3)n2)CC1
ABHD11
  inhibition: 100%
APEH
  inhibition: 0% (inactive)
ESD
  inhibition: 50% (inactive)
LYPLA1
  inhibition: 100%
LYPLA2
  inhibition: 100%

## CC(C)(O)c1cnn(C(=O)N2CCC(C(C)(C)C)CC2)n1
ABHD11
  inhibition: 100% (inactive)
APEH
  inhibition: 0% (inactive)
ESD
  inhibition: 0% (inactive)
LYPLA1
  inhibition: 100%
LYPLA2
  inhibition: 100%

## O=C(N1CCOCC1)n1ncc(-c2ccccc2)n1
ABHD11
  inhibition: 100%
APEH
  inhibition: 100%
ESD
  inhibition: 75%
LYPLA1
  inhibition: 0% (inactive)
LYPLA2
  inhibition: 0% (inactive)

## COc1ccc2cc(-c3cnn(C(=O)N4CCCCC4)n3)ccc2c1
ABHD11
  inhibition: 100%
APEH
  inhibition: 75% (inactive)
ESD
  inhibition: 100%
LYPLA1
  inhibition: 100% (inactive)
LYPLA2
  inhibition: 50% (inactive)

## O=C(N1CCCC(Cc2ccccc2)C1)n1cc(C(O)(c2ccccc2)c2ccccc2)nn1 (stereo not given)
ABHD11
  inhibition: 100%
APEH
  inhibition: 0% (inactive)
ESD
  inhibition: 50% (inactive)
LYPLA1
  inhibition: 100%
LYPLA2
  inhibition: 100%

## CC(C)(C)C1CCN(C(=O)n2ncc(C(O)(c3ccccc3)c3ccccc3)n2)CC1
ABHD11
  inhibition: 100%
APEH
  inhibition: 0% (inactive)
ESD
  inhibition: 50% (inactive)
LYPLA1
  inhibition: 100%
LYPLA2
  inhibition: 100%

## O=C(N1CCCCC1)n1ncc(C(O)c2ccccc2)n1 (stereo not given)
ABHD11
  inhibition: 100%
APEH
  inhibition: 0% (inactive)
ESD
  inhibition: 75%
LYPLA1
  inhibition: 100%
LYPLA2
  inhibition: 75%

## O=C(N1CCCCC1)n1ncc(-c2ccc(Oc3ccccc3)cc2)n1
ABHD11
  inhibition: 100%
APEH
  inhibition: 0% (inactive)
ESD
  inhibition: 100%
LYPLA1
  inhibition: 100%
LYPLA2
  inhibition: 0% (inactive)

## O=C(N1CCOCC1)n1nnc2ccccc21
ABHD11
  inhibition: 100%
APEH
  inhibition: 100% (inactive)
ESD
  inhibition: 50% (inactive)
LYPLA1
  inhibition: 50% (inactive)
LYPLA2
  inhibition: 0% (inactive)

## O=C(N1CCOCC1)n1ncc(-c2cc(F)cc(F)c2)n1
ABHD11
  inhibition: 100%
APEH
  inhibition: 100%
ESD
  inhibition: 75%
LYPLA1
  inhibition: 50% (inactive)
LYPLA2
  inhibition: 0% (inactive)

## O=C(N1CCC(Cc2ccccc2)CC1)n1ncc(C(O)(c2ccccc2)c2ccccc2)n1
ABHD11
  inhibition: 100%
APEH
  inhibition: 0% (inactive)
ESD
  inhibition: 50% (inactive)
LYPLA1
  inhibition: 100%
LYPLA2
  inhibition: 100%

## O=C(N1CCOCC1)n1ccnn1
ABHD11
  inhibition: 100%
APEH
  inhibition: 0% (inactive)
ESD
  inhibition: 0% (inactive)
LYPLA1
  inhibition: 0% (inactive)
LYPLA2
  inhibition: 0% (inactive)

## CC1CCN(C(=O)n2ncc(C(O)(c3ccccc3)c3ccccc3)n2)CC1
ABHD11
  inhibition: 100%
APEH
  inhibition: 100%
ESD
  inhibition: 75% (inactive)
LYPLA1
  inhibition: 100%
LYPLA2
  inhibition: 100%

## O=C(N1CCOCC1)n1ncc(C(O)(c2ccccc2)c2ccccc2)n1
ABHD11
  inhibition: 100%
APEH
  inhibition: 50% (inactive)
ESD
  inhibition: 50% (inactive)
LYPLA1
  inhibition: 100%
LYPLA2
  inhibition: 50% (inactive)

## CCC1CCCCN1C(=O)n1ncc(C(O)(c2ccccc2)c2ccccc2)n1 (stereo not given)
ABHD11
  inhibition: 100%
APEH
  inhibition: 50% (inactive)
ESD
  inhibition: 0% (inactive)
LYPLA1
  inhibition: 0% (inactive)
LYPLA2
  inhibition: 0% (inactive)

## O=C(N1CCCCC1)n1ncc(C(O)(c2ccccc2)c2ccccc2)n1
ABHD11
  inhibition: 100%
APEH
  inhibition: 50% (inactive)
ESD
  inhibition: 100%
LYPLA1
  inhibition: 100%
LYPLA2
  inhibition: 100%

## O=C(N1CCOCC1)n1ncc(-c2ccc(OC(F)(F)F)cc2)n1
ABHD11
  inhibition: 100%
APEH
  inhibition: 50% (inactive)
ESD
  inhibition: 75% (inactive)
LYPLA1
  inhibition: 0% (inactive)
LYPLA2
  inhibition: 0% (inactive)
